According to patent US20140322076A1, “ANTIMICROBIAL COMPOSITION” (priority 2011, published 2014):

Assays:
Format in all cases: cell-based
[1] = tested on: Escherichia coli (10536 strain); experiment: Antimicrobial efficacy, 15 seconds contact suspension assay (Examples 1 and 3); settings: for NMBS (mean bacterial survival) / NMBS: contact time 15 seconds; for NMBS (mean bacterial survival): phenol and terpineol concentration (% w/v) as given per example, 0 = complete kill, triplicate; for MBC (Minimum Biocidal Concentration): lowest concentration with complete kill after 15 seconds contact, active alone, upper boundary to the MBC; for NMBS: Example 3, gamma-terpineol, concentrations (% w/v) as given per example
Experimental: The efficacies of antimicrobial agents can be usefully compared by determining the Minimum Biocidal Concentration (MBC). The MBC is defined as the lowest absolute concentration of the particular active that provides complete kill (zero bacterial growth).
ΣFBC=FBC(component 1)+FBC(component 2)+FBC(component 3)+ . . . etc
such that • ΣFBC≧1 corresponds to additive or antagonistic bactericidal activity • ΣFBC<1 corresponds to synergistic bactericidal activity
Antimicrobial efficacy is tested against a representative pathogenic bacterial organism, Gram negative Escherichia coli. Concentrations of actives are expressed in terms of the percentage weight/volume (% w/v) throughout Example 1.
An overnight culture of Escherichia coli (10536 strain) was prepared in 50 ml total volume of TSB broth, grown for ca. 18 hrs at 37° C. and shaken at 150 rpm. 1 ml of this overnight E. coli culture was transferred to 50 ml of fresh TSB broth and incubated at 37° C. at 150 rpm for ca. 4 hours. This culture was separated into equal volumes and centrifuged at 4000 rpm for 15 minutes, washed with sterile saline (0.85% NaCl), centrifuged once more and re-suspended in saline to give a final concentration of 0.8 OD620 equivalent to about 10^8 cells per millilitre for this particular organism. Here, OD620 indicates the absorbance of a sample in a cuvette of 1.0 cm path length at a wavelength of 620 nm. This bacterial stock was used for assaying against antimicrobial actives (in triplicate).
The following assay describes the testing of 8 materials using 6 dilutions across half of a 96-well micro titre plate (MTP). Using this approach it is possible to assay 16 actives (without replicates) with one full dilution plate, replicating this set up in two halves of the plate columns, 1-6 and 7-12.
1M solutions of the test actives were prepared in dimethylsulphoxide (DMSO).
Aliquots (270 μl) of the materials at 1.11 times the final concentration were dispensed into the wells of the MTP along one column (A1-H1). This MTP was labelled as the “Screening plate”.
In another MTP, labelled as the “Dilution plate”, 270 μl of D/E neutralising solution from DIFCO Composition was added to column 1. The composition of the neutralising solution was as follows: pancreatic digest of casein, 5.0 g/L; Yeast Extract, 2.5 g/L; Dextrose, 10 g/L, sodium thioglycollate, 1.0 g/L, sodium thiosulphate, 6.0 g/L; sodium bisulphite, 2.5 g/L; Polysorbate 80, 5.0 g/L; lecithin 7.0 g/L; bromocresol purple, 0.02 g/L with a pH in the range 7.6±0.2.
270 μl of tryptone diluent solution was added to all the remaining wells of the Dilution MTP (columns 2-6).
Bacterial stock (30 μl) was then added to the prepared 270 μl of the solution of actives in the Screening Plate and mixed, using a multichannel pipette with 8 tips to aspirate and dispense the same volume of bacterial stock in parallel to 8 wells in rows A-H. After a contact time of 15 seconds, the mixtures were quenched by transferring 30 μl volumes of the mixtures into the 270 μl D/E neutralising solution in the prepared dilution plate, using aspiration to mix. After exactly 5 minutes in the D/E neutralising solution, 30 μl volumes were transferred from column 1 to column 2 of the Dilution MTP and mixed, before transferring further 30 μl volumes from column 2 into column 3. This process was repeated serially diluting the bacteria across the plate to column 6.
30 μl volumes from each well in the Dilution MTP were transferred onto pre-labelled segment of Tryptone Soya Agar (TSA) plates starting from the lowest bacterial concentration (highest dilution, column 6) to the highest bacterial concentration (column 1). The TSA plates were allowed to stand for ca. 2 hours so that the 30 μl inocula spots could dry and the plates were then inverted and incubated overnight at 37° C. before enumerating the bacterial colonies at the labelled dilutions to determine the effects of the actives on bacterial growth.

[2] = tested on: Escherichia coli (E. coli - ATCC #10536); experiment: High resolution MBC synergy assay in phosphate buffer containing 35% dipropylene glycol (Example 2); settings: for ΣFBC: calculated from Ca/MBCA + Cb/MBCB; for MBC of the component alone (MBCA, MBCB): complete kill in 15 seconds, phosphate buffer, 35% DPG
Experimental: The materials were sourced in the same way as for Example 1. Synergy tests were conducted using standard microtiter plate assays with phosphate buffer containing 35% dipropylene glycol (DPG). […] The MBC plate was inoculated one column at a time with the test microorganism. An aliquot of the inoculated well was transferred at 15 seconds to a plate containing a neutralizing agent (D/E Neutralizing Broth), mixed and held for 5 minutes before being transferred to a growth plate containing trypticase soy broth (TSB). The TSB plate was incubated at 37° C. and read for the presence/absence of growth at 24 hours. […] This microorganism is representative of natural contaminants in many consumer and industrial applications.

[3] = tested on: Escherichia coli (E. coli - ATCC #10536); experiment: Automated assessment of efficacy in surfactant base (Example 4); settings: for MBC: in 2.85% sodium cocoyl glycinate + 1.85% sodium lauroamphoacetate solution at pH 10; for 15 second bactericidal efficacy (in words): in combination with alpha-terpineol at concentrations lower than their MBC, surfactant formulation
Experimental: In these examples, the efficacy of combinations of isopropylmethylphenols and terpineol were tested in a surfactant cleansing formulation comprising 2.85% sodium cocoyl glycinate and 1.85% sodium lauroamphoacetate. This corresponds to a 50% in use dilution with water of a typical neat formulation containing 5.7% cocoyl glycinate and 3.7% % sodium lauroamphoacetate during hand washing. Solutions were prepared such that the concentrations of the surfactant components and test actives were 1.1 times the final desired concentration in order to allow for dilution with the bacterial inoculum in the test. The solutions were manually adjusted to pH 10.0 by dropwise addition of sodium hydroxide solution, as measured with a pH meter at ambient temperature. Solutions of the isopropylmethylphenols and/or terpineols were prepared at a maximum of 24 hours before testing. The same terpineol was used as in Example 1.
The efficacy of the combinations of the present invention was determined against the same bacterium as in Example 1, Escherichia coli (E. coli—ATCC #10536), at a concentration of approximately 1×10^8 bacteria per mL.
Tests were conducted using standard microtiter plate assays using an automated liquid handling system. 270 μl of the surfactant test solution was pipetted into each well of the microtitre plate (Nunc F Gamma Irradiated 96F untreated microtitre plates of clear polystyrene) and 30 μl of the bacterial suspension was then added. After exactly 15 seconds of bacterial exposure, a 30 μl volume of bacterial cells was withdrawn and transferred to 270 μl of D/E quench solution. After 5 minutes in the D/E quench, the optical density (OD) was measured for each plate in turn at two specific wavelengths (450 nm and 590 nm). These provide a dual check of antimicrobial activity, as the OD450 reading is specific for the yellow colour of D/E quench when bacterial growth is observed, whereas OD590 is specific for the initial purple colour of the D/E quench which is retained if no bacterial growth is observed. After the time zero OD measurements, plates were then incubated at 37° C. overnight (16 hours) before repeating the OD measurements. Delta OD values were calculated by subtracting […] at time=16 hours.
Bacterial growth is observed as an increase in OD450 and a decrease in OD590. To identify antibacterially efficacious systems (those preventing appreciable bacterial growth after incubation), the following threshold changes in OD readings have been adopted: if (1). OD450 increases by less than 0.2 absorbance unit (AU) on incubation and (2). OD590 decreases by less than 0.35 AU on incubation. Conversely, where OD450 increases by more than 0.1 AU and OD590 decreases by more than 0.1 AU after incubation, corresponding to a colour shift from purple to yellow, the test system allows bacterial growth and is not deemed efficacious. Four replicate measurements in the same plate have been made for each test system. The number of replicate wells showing either bacterial growth or no growth is also readily assessed by eye by following the colour change. Thymol and terpineol were tested both alone and in combination for comparison purposes.
In each case, binary mixtures were assessed in the weight to weight ratio isopropylmethylphenol to alpha terpineol of 1:2.5.

Compound	NMBS (mean bacterial survival) [1] [log CFU/ml]	NMBS [1] [log CFU/ml]	also measured
Cc1ccc(C(C)C)c(O)c1 [1:1, thymol]	0	–	–
Cc1ccc(C(C)C)c(O)c1 [1:2, thymol]	0	–	–
Cc1ccc(C(C)C)c(O)c1 [1:3, thymol]	>7	–	–
CC1=CCC(O)(C(C)C)CC1 (stereo not drawn) [1:4, terpineol]	0	–	–
CC1=CCC(O)(C(C)C)CC1 (stereo not drawn) [1:5, terpineol]	0	–	–
CC1=CCC(O)(C(C)C)CC1 (stereo not drawn) [1:6, terpineol]	7	–	–
CC1=CCC(O)(C(C)C)CC1 (stereo not drawn) [1:7, terpineol]	7	–	–
Cc1cc(O)cc(C(C)C)c1 [1:8, 3-isopropyl-5-methylphenol]	0	–	–
Cc1cc(O)cc(C(C)C)c1 [1:9, 3-isopropyl-5-methylphenol]	7.6	–	–
Cc1cc(O)ccc1C(C)C [1:12, 4-isopropyl-3-methylphenol]	0	–	–
Cc1cc(O)ccc1C(C)C [1:13, 4-isopropyl-3-methylphenol]	7.6	–	–
Cc1cc(O)cc(C(C)C)c1 [3-isopropyl-5-methylphenol]	–	–	ΣFBC [2]: 1.00; MBC of the component alone (MBCA, MBCB) [2]: 0.5 weight %; MBC [3]: >0.2 % w/v; 15 second bactericidal efficacy (in words) [3]: complete kill in all 4 replicates; MBC (Minimum Biocidal Concentration) [1]: 0.05 % w/v
CC(C)=C1CCC(C)(O)CC1 (stereo not drawn) [3:1, gamma-terpineol]	–	0	–
CC(C)=C1CCC(C)(O)CC1 (stereo not drawn) [3:2, gamma-terpineol]	–	0	–
CC(C)=C1CCC(C)(O)CC1 (stereo not drawn) [3:3, gamma-terpineol]	–	0	–
CC(C)=C1CCC(C)(O)CC1 (stereo not drawn) [3:4, gamma-terpineol]	–	7.84	–
Cc1cc(O)ccc1C(C)C [3:5, 4-isopropyl-3-methylphenol]	–	4.98	–
Cc1cc(O)ccc1C(C)C [3:6, 4-isopropyl-3-methylphenol]	–	7.78	–
Cc1cc(O)ccc1C(C)C [3:7, 4-isopropyl-3-methylphenol]	–	7.79	–
Cc1cc(O)ccc1C(C)C [4-isopropyl-3-methylphenol]	–	–	MBC [3]: >0.2 % w/v; 15 second bactericidal efficacy (in words) [3]: complete kill in all 4 replicates; MBC (Minimum Biocidal Concentration) [1]: 0.075 % w/v
CC1=CCC(C(C)(C)O)CC1 (stereo not drawn) [alpha-terpineol]	–	–	ΣFBC [2]: 1.00; MBC of the component alone (MBCA, MBCB) [2]: 0.6 weight %; MBC [3]: >0.5 % w/v; reduction of the terpineol concentration required for complete kill ([1]; 0.4% alone to […] in combination with […] w/v 4-isopropyl-3-methylphenol or 3-isopropyl-5-methylphenol): 2.7 fold
CC(C)=C1CCC(C)(O)CC1 (stereo not drawn) [gamma-terpineol]	–	–	MBC (Minimum Biocidal Concentration) [1]: 0.3 % w/v
Cc1ccc(C(C)C)c(O)c1 [thymol, thymol (2-isopropyl-5-methylphenol)]	–	–	MBC [3]: >0.2 % w/v; MBC (Minimum Biocidal Concentration) [1]: 0.05 % w/v
